Measured values as given in US8492374B2, “Azaazulene compounds” (Industrial Technology Research Institute, priority 2009, dated 2013).

Columns and labels:
[1] = tested on: MV4-11 (FLT3-ITD) cell line; assay: In vitro cell activity assay (MTT cell viability, 72 hours); type: cell-based; conditions: Homo sapiens, 72 hours at 37° C., 10,000 cells per well, read-out: IC50 against MV4-11
How it was run: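 Compound serial dilutions applied to MV4-11 (FLT3-ITD) cells, 10,000 per well, for 72 hours at 37° C. Viability by MTT, formazan dissolved in DMSO, absorbance at 600 nm; IC50 by nonlinear regression as concentration halving absorbance versus untreated cells.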

[2] = target: T1, c-KIT kinase (Homo sapiens, UniProt P10721); assay: c-KIT kinase DELFIA assay (HTScan c-KIT Kinase Assay Kit); type: biochemical; conditions: 20 uM ATP; for inhibition at 0.1 µM: 0.1 uM compound; for inhibition at 1 µM: 1 uM compound
T1 construct: human c-KIT (Thr544-Val976); GST (N); purchased Cell Signaling Technology HTScan c-KIT Kinase Assay Kit; host or cells: baculovirus expression system
T1 sequence (P10721 544-976): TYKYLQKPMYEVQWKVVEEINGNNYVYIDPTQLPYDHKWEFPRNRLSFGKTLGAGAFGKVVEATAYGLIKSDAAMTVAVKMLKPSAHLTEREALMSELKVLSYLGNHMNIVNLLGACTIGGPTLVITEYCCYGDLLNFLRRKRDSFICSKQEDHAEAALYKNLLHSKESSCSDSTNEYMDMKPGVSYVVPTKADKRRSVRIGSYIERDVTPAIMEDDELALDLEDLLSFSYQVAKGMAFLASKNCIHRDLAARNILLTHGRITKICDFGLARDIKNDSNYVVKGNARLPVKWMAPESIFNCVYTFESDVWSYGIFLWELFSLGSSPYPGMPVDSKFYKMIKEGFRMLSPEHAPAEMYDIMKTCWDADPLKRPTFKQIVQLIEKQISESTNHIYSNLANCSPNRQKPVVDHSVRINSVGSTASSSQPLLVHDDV
Experimental: (§1) Azaazulene Compounds of this invention were treated for their efficacy in inhibiting activities of FLT-3, c-KIT and KDR kinases by biochemical DELFIA (Dissociation Enhanced Lanthanide FIA) assays according to the procedure described below. The assays were conducted by, Division of Cell Engineering, Biomedical Engineering Research Laboratories, Industrial Technology Research Institute, Bldg. 53, 195, sec. 4, Chung Hsing Rd. Chutung, Hsinchu, Taiwan 310, R.O.C.
The c-KIT assay was conducted following the protocol described in Protocol for HTScan® c-KIT Kinase Assay Kit (Cell Signaling Technology®).

[3] = target: T2, FLT-3 kinase (Homo sapiens, UniProt P36888); assay: FLT-3 kinase DELFIA assay (HTScan FLT-3 Kinase Assay Kit); type: biochemical; conditions: 20 uM ATP; for inhibition at 0.1 µM: 0.1 uM compound; for inhibition at 1 µM: 1 uM compound
T2 construct: human FLT-3 (Arg571-Ser993); GST (N); purchased Cell Signaling Technology HTScan FLT-3 Kinase Assay Kit; host or cells: baculovirus expression system
T2 sequence (P36888 571-993): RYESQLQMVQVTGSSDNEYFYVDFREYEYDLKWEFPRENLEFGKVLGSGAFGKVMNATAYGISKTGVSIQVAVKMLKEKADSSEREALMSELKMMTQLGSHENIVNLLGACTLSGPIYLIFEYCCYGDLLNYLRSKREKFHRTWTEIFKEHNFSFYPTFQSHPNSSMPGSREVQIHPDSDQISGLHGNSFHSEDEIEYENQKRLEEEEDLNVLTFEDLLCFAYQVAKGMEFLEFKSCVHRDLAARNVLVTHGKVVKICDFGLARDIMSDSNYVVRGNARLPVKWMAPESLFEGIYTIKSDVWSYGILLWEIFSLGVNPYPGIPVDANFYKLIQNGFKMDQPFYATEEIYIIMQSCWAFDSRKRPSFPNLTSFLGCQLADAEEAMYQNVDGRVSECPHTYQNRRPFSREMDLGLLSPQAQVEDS

[4] = target: T3, KDR kinase (Homo sapiens, UniProt P35968); assay: KDR kinase DELFIA assay (HTScan VEGFR-2 Kinase Assay Kit); type: biochemical; conditions: 20 uM ATP; for inhibition at 1 µM: 1 uM compound, read-out: Kinases inhibitory activities against KDR kinase, 1 uM; for inhibition at 0.1 µM: 0.1 uM compound, read-out: Kinases inhibitory activities against KDR kinase, 0.1 uM
T3 construct: human VEGFR-2 (Val789-Val1356); GST (N); purchased Cell Signaling Technology HTScan VEGFR-2 Kinase Assay Kit; host or cells: baculovirus expression system
T3 sequence (P35968 789-1356): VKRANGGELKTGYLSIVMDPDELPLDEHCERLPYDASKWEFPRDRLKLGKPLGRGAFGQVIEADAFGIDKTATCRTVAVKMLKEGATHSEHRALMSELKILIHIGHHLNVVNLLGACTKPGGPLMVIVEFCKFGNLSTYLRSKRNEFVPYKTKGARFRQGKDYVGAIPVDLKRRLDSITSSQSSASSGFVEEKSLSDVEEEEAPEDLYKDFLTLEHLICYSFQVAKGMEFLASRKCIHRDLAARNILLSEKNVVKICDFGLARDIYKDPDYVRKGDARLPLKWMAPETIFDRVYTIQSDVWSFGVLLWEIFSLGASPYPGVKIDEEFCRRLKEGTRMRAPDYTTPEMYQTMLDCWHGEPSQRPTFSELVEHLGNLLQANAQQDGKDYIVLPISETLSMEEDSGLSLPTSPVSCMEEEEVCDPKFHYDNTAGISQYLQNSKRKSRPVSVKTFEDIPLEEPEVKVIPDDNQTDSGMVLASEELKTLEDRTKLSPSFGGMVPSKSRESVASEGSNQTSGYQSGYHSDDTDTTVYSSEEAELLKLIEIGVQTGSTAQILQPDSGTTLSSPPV
Experimental: as §1
The KDR assay was conducted following the protocol described in Protocol for HTScan™ VEGFR-2 Kinase Assay Kit (Cell Signaling Technology™).

Row | SMILES | IC50 [1] | inhibition at 0.1 µM [2] | inhibition at 1 µM [2] | inhibition at 0.1 µM [3] | inhibition at 1 µM [3] | inhibition at 1 µM [4] | inhibition at 0.1 µM [4]
1 | CCN(CC)CCn1c2cccccc-2c(-c2nc3ccccc3[nH]2)c1=O [Compound B1] | 1000 to 5000 nM | 31.2% | 41.1% | 8.4% | 10.4% | 3.7% | –
2 | O=c1[nH]c2cccccc-2c1-c1nc2cc(F)ccc2[nH]1 [Compound B2] | 1000 to 5000 nM | 6.4% | 57.9% | 18.9% | 59.9% | 94.5% | 78.3%
3 | O=c1[nH]c2cccccc-2c1-c1nc2cc(C(F)(F)F)ccc2[nH]1 [Compound B4] | 1000 to 5000 nM | 5% | 37.6% | 13.7% | 37.1% | 17.8% | 14.4%
4 | O=c1[nH]c2cccccc-2c1-c1nc2cc([N+](=O)[O-])ccc2[nH]1 [Compound B5] | 1300 nM | 15.2% | 56.8% | 12.8% | 27.1% | 45.3% | 31.7%
5 | Nc1ccc2[nH]c(-c3c4cccccc-4[nH]c3=O)nc2c1 [Compound B6] | 916 nM | 32.6% | 62.6% | 12.8% | 45.1% | 63.3% | 29.7%
6 | O=C(O)c1ccc2[nH]c(-c3c4cccccc-4[nH]c3=O)nc2c1 [Compound B7] | > 5000 nM | 34.8% | 57.3% | – | 8.7% | 46.1% | 20.2%
7 | O=c1[nH]c2cccccc-2c1-c1cn2ccccc2n1 [Compound B9] | 1000 to 5000 nM | 16% | 24.4% | 5.8% | 19.1% | 13.2% | 0.5%
8 | C[N+]1([O-])CC[N+]([O-])(c2ccc3[nH]c(-c4c5cccccc-5[nH]c4=O)nc3c2)CC1 (stereo not drawn) [Compound B70] | ~1000 nM | 40.5% | 86.6% | 11.1% | 27.5% | – | –
9 | O=c1[nH]c2cccccc-2c1-c1nc2cc(N3CCCN(c4ccccn4)CC3)ccc2[nH]1 [Compound B94] | 852 nM | 12.3% | 79.1% | 17% | 52.3% | – | –

Stronger by IC50 [1], values ahead:

Row | IC50 [1] | inhibition at 0.1 µM [2] | inhibition at 1 µM [2] | inhibition at 0.1 µM [3] | inhibition at 1 µM [3] | inhibition at 1 µM [4] | inhibition at 0.1 µM [4] | SMILES
10 | ~500 nM | 42.2% | 75.5% | 9.8% | 68.5% | 63.8% | 15.9% | O=c1[nH]c2cccccc-2c1-c1nc2cc(O)ccc2[nH]1 [Compound B8]
11 | 796 nM | 56.7% | 82.9% | 23.1% | 71.4% | – | – | O=c1[nH]c2cccccc-2c1-c1nc2cc(N3CCCN(CCF)CC3)ccc2[nH]1 [Compound B80]
12 | 208 nM | 28.9% | 17.2% | 9.9% | 21% | – | – | O=c1[nH]c2cccccc-2c1-c1nc2cc(N3CCCNCC3)ccc2n1CCCF [Compound B81]
13 | 18.6 nM | 31% | 91.1% | 30.3% | 81.6% | – | – | O=c1[nH]c2cccccc-2c1-c1nc2cc(N3CCCN(CCCF)CC3)ccc2[nH]1 [Compound B82]
14 | 227 nM | – | 19.7% | 11% | 21.2% | – | – | O=c1[nH]c2cccccc-2c1-c1nc2cc(N3CCCN(CCCF)CC3)ccc2n1CCCF [Compound B83]
15 | 88.6 nM | 49.6% | 96.2% | 39.8% | 91.6% | – | – | O=c1[nH]c2cccccc-2c1-c1nc2cc(N3CCCN(Cc4cccnc4)CC3)ccc2[nH]1 [Compound B87]
16 | 144 nM | 47.2% | 89.2% | 20.6% | 62.4% | – | – | O=CN1CCCN(c2ccc3[nH]c(-c4c5cccccc-5[nH]c4=O)nc3c2)CC1 [Compound B88]
17 | 771 nM | 48.3% | 82.6% | 14.4% | 37.7% | – | – | O=c1[nH]c2cccccc-2c1-c1nc2cc(N3CCCN(c4ncccc4[N+](=O)[O-])CC3)ccc2[nH]1 [Compound B95]
18 | 100 to 500 nM | 40.1% | 87.2% | 8.8% | 44.6% | – | – | Cc1cc(N2CCCN(c3ccc4[nH]c(-c5c6cccccc-6[nH]c5=O)nc4c3)CC2)nc(N(C)C)n1 [Compound B97]
19 | 64.1 nM | 66.6% | 36.8% | 57.9% | 76.3% | – | – | O=C(Nc1ccc(Cl)c(C(F)(F)F)c1)Nc1ccc2[nH]c(-c3c4cccccc-4[nH]c3=O)nc2c1 [Compound B118]
